Tested on: human LAT1 and LAT2 highly expressing HEK 293 cell lines
Assay: Evaluation of LAT1 and LAT2-selective uptake
Assay type: cell-based
Details: (uptake in LAT1 cells / L-BPA uptake in LAT1 cells)/(uptake in LAT2 cells / L-BPA uptake in LAT2 cells); substrate concentration 0.1 mM; relative to L-BPA on the same day
Method: HEK 293 cells that stably highly express human LAT1 and LAT2 respectively were prepared according to the method described in the article of Khunweeraphong, N et al. (Journal of Pharmacology Science, 2012, vol. 119, pp 368-380). A shuttle vector DNA (LAT1: EX-H 4509-M02, LAT2: EX-U0514-M02, manufactured by GeneCopoeia) having ampicillin and neomycin resistance markers and having full-length cDNA of human LAT1 or LAT2 inserted under the promoter of cytomegalovirus (CMV) was constructed. This vector was transfected into HEK 293 cells by a method using Lipofectamine (registered trademark) 2000 (Invitrogen) in accordance with the manufacturer's instructions. Thereafter, the stably expressing cell clone of the transgene was selected by the limiting dilution method in the presence of 0.9 mg/mL Geneticin (registered trademark), and a cell clone in which the uptake of L-boronophenylalanine (L-BPA) was enhanced by about 2 to about 5 times as compared with HEK 293 cells before transfection was obtained. This cell was passaged and used for evaluation of LAT1 and LAT2-selective uptake.
As a method for evaluating cell uptake, the same method as in the article of Khunweeraphong, N et al. (Journal of Pharmacology Science, 2012, vol. 119, pp 368-380) was used. Each of the cells obtained in (1) was used for evaluation. Radioactive isotopes were not used, a substrate concentration was 0.1 mM, and 2 mM BCH (2-amino-2-norbonanecarboxylic acid) was used as an LAT1 and LAT2 inhibitor. The reacted cells were collected with 0.05% Tween 20 and the concentration of the 4-borono-phenylalanine derivative in the cell fluid was determined. Quantification of the 4-borono-phenylalanine derivative in cells was performed in accordance with the method described in the article of Hattori, Y, et al. (Sensors 2017, 17, 2436), using 2-(2-hydroxyphenyl)pyridine (boron sensor 5) as a boron sensor. In the evaluation of cell uptake, in consideration of variations between experiments, the cell uptake was evaluated as a value (LAT1 selectivity) relative to the uptake of L-BPA as a comparative object performed on the same day.
LAT1 selectivity=(quantitative value of uptake of the compound in LAT1 cells/quantitative value of uptake of control L-BPA in LAT1 cells)/(quantitative value of uptake of the compound in LAT2 cells/quantitative value of uptake of control L-BPA in LAT2 cells)

Q: For `C[C@](N)(Cc1ccc(B(O)O)cc1F)C(=O)O` [Example 1, (S)-2-amino-3-(4-borono-2-fluorophenyl)-2-methylpropanoic acid], which LAT1 selectivity is on record?
A: twice or more

Q: Which LAT1 selectivity does the source give for `C[C@@](N)(Cc1ccc(B(O)O)cc1F)C(=O)O` [Example 2, (R)-2-Amino-3-(4-borono-2-fluorophenyl)-2-methylpropanoic acid] here?
A: twice or more

Q: Which LAT1 selectivity does the source give for `Cc1cc(B(O)O)ccc1C[C@](C)(N)C(=O)O` [Example 3, (S)-2-Amino-3-(4-borono-2-methylphenyl)-2-methylpropanoic acid] here?
A: twice or more

Q: For `Cc1cc(B(O)O)ccc1C[C@@](C)(N)C(=O)O` [Example 4, (R)-2-Amino-3-(4-borono-2-methylphenyl)-2-methylpropanoic acid], which LAT1 selectivity is on record?
A: twice or more

Q: With `C[C@](N)(Cc1ccc(B(O)O)cc1C(F)(F)F)C(=O)O` [Example 5, (S)-2-Amino-3-(4-borono-2-(trifluoromethyl)phenyl)-2-methylpropanoic acid] as the compound, how does the LAT1 selectivity read?
A: twice or more

Q: For `C[C@@](N)(Cc1ccc(B(O)O)cc1C(F)(F)F)C(=O)O` [Example 6, (R)-2-Amino-3-(4-borono-2-(trifluoromethyl)phenyl)-2-methylpropanoic acid], which LAT1 selectivity is on record?
A: twice or more

Q: With `COc1cc(B(O)O)ccc1C[C@](C)(N)C(=O)O` [Example 7, (S)-2-Amino-3-(4-borono-2-methoxyphenyl)-2-methylpropanoic acid] as the compound, how does the LAT1 selectivity read?
A: twice or more

Q: For `C[C@](N)(Cc1ccc(B(O)O)cc1Cl)C(=O)O` [Example 9, (S)-2-Amino-3-(4-borono-2-chlorophenyl)-2-methylpropanoic acid], which LAT1 selectivity is on record?
A: twice or more

Q: With `C[C@](N)(Cc1c(F)cc(B(O)O)cc1F)C(=O)O` [Example 11, (S)-2-Amino-3-(4-borono-2,6-difluorophenyl)-2-methylpropanoic acid] as the compound, how does the LAT1 selectivity read?
A: twice or more

Q: For `C[C@](N)(Cc1cc(Cl)c(B(O)O)cc1F)C(=O)O` [Example 13, (S)-2-Amino-3-(4-borono-5-chloro-2-fluorophenyl)-2-methylpropanoic acid], which LAT1 selectivity is on record?
A: twice or more

Q: For `C[C@](N)(Cc1ccc(B(O)O)c(F)c1F)C(=O)O` [Example 14, (S)-2-Amino-3-(4-borono-2,3-difluorophenyl)-2-methylpropanoic acid], which LAT1 selectivity is on record?
A: twice or more

Q: Which LAT1 selectivity does the source give for `C[C@](N)(Cc1ccc(B(O)O)c(F)c1)C(=O)O` [Example 15, (S)-2-Amino-3-(4-borono-3-fluorophenyl)-2-methylpropanoic acid] here?
A: twice or more

Q: With `C[C@@](N)(Cc1ccc(B(O)O)c(F)c1)C(=O)O` [Example 16, (R)-2-Amino-3-(4-borono-3-fluorophenyl)-2-methylpropanoic acid] as the compound, how does the LAT1 selectivity read?
A: twice or more

Q: With `Cc1cc(C[C@](C)(N)C(=O)O)ccc1B(O)O` [Example 17, (S)-2-Amino-3-(4-borono-3-methylphenyl)-2-methylpropanoic acid] as the compound, how does the LAT1 selectivity read?
A: twice or more

Q: Which LAT1 selectivity does the source give for `C[C@](N)(Cc1cc(F)c(B(O)O)cc1Cl)C(=O)O` [Example 29, (S)-2-Amino-3-(4-borono-2-chloro-5-fluorophenyl)-2-methylpropanoic acid] here?
A: twice or more

Q: With `CSc1cc(B(O)O)ccc1C[C@](C)(N)C(=O)O` [Example 34, (S)-2-Amino-3-(4-borono-2-(methylthio)phenyl)-2-methylpropanoic acid] as the compound, how does the LAT1 selectivity read?
A: twice or more

Q: Which LAT1 selectivity does the source give for `C[C@](N)(Cc1ccc(B(O)O)cc1C(F)F)C(=O)O` [Example 35, (S)-2-Amino-3-(4-borono-2-(difluoromethyl)phenyl)-2-methylpropanoic acid] here?
A: twice or more

Q: With `C[C@@](N)(Cc1ccc(B(O)O)cc1C(F)F)C(=O)O` [Example 36, (R)-2-Amino-3-(4-borono-2-(difluoromethyl)phenyl)-2-methylpropanoic acid] as the compound, how does the LAT1 selectivity read?
A: twice or more

Q: For `C[C@](N)(Cc1ccc(B(O)O)c(Cl)c1)C(=O)O` [Example 37, (S)-2-Amino-3-(4-borono-3-chlorophenyl)-2-methylpropanoic acid], which LAT1 selectivity is on record?
A: twice or more

Q: For `N[C@@H](Cc1ccc(B(O)O)cn1)C(=O)O` [Example 44, (S)-2-Amino-3-(5-boronopyridin-2-yl)propanoic acid], which LAT1 selectivity is on record?
A: twice or more

Q: Which LAT1 selectivity does the source give for `Cc1cc(B(O)O)cnc1C[C@H](N)C(=O)O` [Example 49, (S)-2-Amino-3-(5-borono-3-methylpyridin-2-yl)propanoic acid] here?
A: twice or more

Q: With `N[C@@H](Cc1ncc(B(O)O)cc1Cl)C(=O)O` [Example 50, (S)-2-Amino-3-(5-borono-3-chloropyridin-2-yl)propanoic acid] as the compound, how does the LAT1 selectivity read?
A: twice or more

Q: Which LAT1 selectivity does the source give for `Cc1cc(C[C@H](N)C(=O)O)ncc1B(O)O` [Example 51, (S)-2-Amino-3-(5-borono-4-methylpyridin-2-yl)propanoic acid] here?
A: twice or more

Tested on: not listed separately
Assay: Single dose toxicity test
Assay type: in vivo
Details: single tail vein injection, 250, 500 and 1000 mg/kg, 5 animals per group, observation period 8 days
Method: In a beaker, 17.6 mL of 1 mol/L NaOH was put, and 24 mL of water for injection was further added and mixed. To this was added 2.52 g of D-sorbitol. After confirming complete dissolution, 17.1 mL of 1 mol/L hydrochloric acid was added to adjust the pH to 7.4 to 7.8. The mixture was transferred to a measuring cylinder, the beaker was washed with water for injection, and the washing liquid was transferred to the measuring cylinder. This operation was repeated as much as possible, and the volume of the liquid in the measuring cylinder was increased to 80 mL while the beaker was washed. The mixture was filtration-sterilized with a filter (Millex GV, pore size: 0.22 μm, Merck, sterilized disposable product), affording a 3.15% D-sorbitol solution.
On the other hand, 10.1 mL of a 1 mol/L aqueous sodium hydroxide solution was put in a beaker, and 13.8 mL of water for injection was further added and mixed. To this were added 2.30 g of test substance and 1.45 g of D-sorbitol. After confirming complete dissolution, 1.36 mL of 1 mol/L hydrochloric acid was added to adjust the pH to 7.4 to 7.8. The mixture was transferred to a measuring cylinder, the beaker was washed with water for injection, and the washing liquid was transferred to the measuring cylinder. […]

Q: For `C[C@](N)(Cc1ccc(B(O)O)cc1F)C(=O)O` [Example 1, (S)-2-amino-3-(4-borono-2-fluorophenyl)-2-methylpropanoic acid], which “change due to administration of the test substance (single dose toxicity)” value is on record?
A: no serious change due to the administration of the test substance was observed in any of the administration groups

Q: With `C[C@](N)(Cc1ccc(B(O)O)cc1Cl)C(=O)O` [Example 9, (S)-2-Amino-3-(4-borono-2-chlorophenyl)-2-methylpropanoic acid] as the compound, how does the “change due to administration of the test substance (single dose toxicity)” value read?
A: no serious change due to the administration of the test substance was observed in any of the administration groups

— patent publication US20240239816A1, “BORONO-PHENYLALANINE DERIVATIVE” (STELLA PHARMA CORPORATION, priority 2021, published 2024)
